In brackets after ≈: the same amount, converted by molar mass. Peptide text beside a SMILES is read from it.
What was measured:
[1] = tested on: LasB elastase of MRPA0108; test: LasB elastase activity, elastin-Congo red method; assay type: cell-based, Pseudomonas aeruginosa; settings: peptide at 1/4 × MIC, 24 h, 37°C; ECR substrate, OD495/OD600; vs control; triplicate
Method: The culture supernatant was obtained after centrifugation at 12,000×g for 10 min. (1) LasB elastase activity was measured using elastin-Congo red (ECR) as the substrate, as described by [Pattnaik et al. (2018)]. Briefly, 100 μl of the culture supernatant was added to 900 μl of ECR buffer (100 mM Tris-HCl, 1 mM CaCl2, pH 7.5) containing 10 mg of ECR and then incubated with shaking at 37°C for 18 h. Then, 100 μl of 0.12 M EDTA was added to stop the reaction. The insoluble ECR was removed by centrifugation, and the supernatant absorbance was measured at 495 nm. The optical density (OD) 495 nm/OD 600 nm represents the elastase activity. (2) LasA protease activity was measured as follows ([Pattnaik et al., 2018]): first, the culture supernatant was filtered to remove the bacterial cells, and then 150 μl of sterile-filtered supernatant was added to 2% azocasein (prepared in 50 mM Tris-HCl) and incubated for 4 h at 37°C. Trichloroacetic acid (TCA, 10%) was added to precipitate the undigested substrate. After centrifugation at 10,000 rpm for 10 min, 1 M NaOH was added to the supernatant, and the relative protease activity was measured at OD 440 nm. (3) The pyocyanin assay was based on the absorbance of excreted pyocyanin at 520 nm in an acidic solution ([Kong et al., 2005]). Three milliliters of culture supernatant were mixed with 2 ml of chloroform for 20 min, and then the pyocyanin from the chloroform phase was reextracted using 0.2 M HCl for 15 min to obtain a pink-colored pyocyanin solution. The OD 520 nm was measured to evaluate the change in pyocyanin content. (4) Rhamnolipid detection was carried out as previously described ([Wittgens et al., 2011]). Briefly, 500 μl of culture supernatant was mixed with 500 μl of ethyl acetate and vortexed vigorously for 15 s to extract rhamnolipid. After centrifugation at 10,000×g for 5 min at 4°C, the organic phase containing rhamnolipids was obtained and evaporated at room temperature overnight. […] The absorbance was measured at 420 nm. (5) The level of C4-HSL was quantified by GC-MS as previously described ([Guo et al., 2012]).

[2] = tested on: rhamnolipid production in MRPA0108; test: Rhamnolipid production, orcinol method; assay type: cell-based, Pseudomonas aeruginosa; settings: peptide at 1/4 × MIC, 24 h, absorbance 420 nm, vs control, triplicate
Method: The culture supernatant was obtained after centrifugation at 12,000×g for 10 min. (1) LasB elastase activity was measured using elastin-Congo red (ECR) as the substrate, as described by [Pattnaik et al. (2018)]. Briefly, 100 μl of the culture supernatant was added to 900 μl of ECR buffer (100 mM Tris-HCl, 1 mM CaCl2, pH 7.5) containing 10 mg of ECR and then incubated with shaking at 37°C for 18 h. Then, 100 μl of 0.12 M EDTA was added to stop the reaction. The insoluble ECR was removed by centrifugation, and the supernatant absorbance was measured at 495 nm. The optical density (OD) 495 nm/OD 600 nm represents the elastase activity. (2) LasA protease activity was measured as follows ([Pattnaik et al., 2018]): first, the culture supernatant was filtered to remove the bacterial cells, and then 150 μl of sterile-filtered supernatant was added to 2% azocasein (prepared in 50 mM Tris-HCl) and incubated for 4 h at 37°C. Trichloroacetic acid (TCA, 10%) was added to precipitate the undigested substrate. After centrifugation at 10,000 rpm for 10 min, 1 M NaOH was added to the supernatant, and the relative protease activity was measured at OD 440 nm. (3) The pyocyanin assay was based on the absorbance of excreted pyocyanin at 520 nm in an acidic solution ([Kong et al., 2005]). Three milliliters of culture supernatant were mixed with 2 ml of chloroform for 20 min, and then the pyocyanin from the chloroform phase was reextracted using 0.2 M HCl for 15 min to obtain a pink-colored pyocyanin solution. The OD 520 nm was measured to evaluate the change in pyocyanin content. (4) Rhamnolipid detection was carried out as previously described ([Wittgens et al., 2011]). Briefly, 500 μl of culture supernatant was mixed with 500 μl of ethyl acetate and vortexed vigorously for 15 s to extract rhamnolipid. After centrifugation at 10,000×g for 5 min at 4°C, the organic phase containing rhamnolipids was obtained and evaporated at room temperature overnight. The rhamnolipid extract dissolved in ultrapure water was mixed with orcinol reagent (0.19% orcinol in 53% H2SO4) and incubated at 80°C for 30 min. The absorbance was measured at 420 nm. (5) The level of C4-HSL was quantified by GC-MS as previously described ([Guo et al., 2012]).

[3] = tested on: MRPA0108 biofilms; test: Confocal laser scanning microscopy of biofilms (LIVE/DEAD staining); assay type: cell-based, Pseudomonas aeruginosa; settings: 24 h; for percentage of dead/live cells in biofilm: SYTO9/PI, control 8.7%
Method: Biofilms of MRPA0108 were visualized by confocal microscopy. Mid-log growth-phase bacteria were diluted to 1 × 10^7 CFU/ml. […] LB liquid medium and erythromycin were used as negative and positive controls, respectively. After incubation, the supernatant was removed, and the slides were washed and stained in a dark environment for 30 min using a LIVE/DEAD BacLight^TM Bacterial Viability Kit (Invitrogen, Life Technologies, Shanghai, China). The slides were washed three times and imaged with a confocal laser scanning microscope (LSM 710, Carl Zeiss, Germany) with excitation/emission wavelengths of 480/500 and 490/635 nm for SYTO9 and propidium iodide (PI), respectively. SYTO9 was used to indicate live bacteria, and PI was used to mark dead bacteria.

[4] = tested on: exopolysaccharide production in MRPA0108; test: Exopolysaccharide determination, phenol-H2SO4 method; assay type: cell-based, Pseudomonas aeruginosa; settings: phenol-H2SO4, 490 nm
Method: (§1) Exopolysaccharides were determined using the phenol-H2SO4 method. Briefly, after incubation, the cultures were centrifuged at 10,000 rpm for 15 min, and the pellets were resuspended in high-salt buffer (10 mM KPO4, 5 mM NaCl, 2.5 mM MgSO4, pH 7.0), followed by recentrifugation at 10,000 rpm for 30 min. The resulting supernatant was mixed with three volumes of chilled ethanol (100%) and incubated overnight at 4°C. The precipitated exopolysaccharide was added to a mixture containing cold phenol and H2SO4, and the absorbance of the solution was measured at 490 nm. Alginate content was determined using the H2SO4-carbazole method. Briefly, after incubation, the precooled cultures were mixed with an H2SO4 solution (4:1) and vortexed in ice water, and then 0.2% carbazole dissolved in ethanol was added. The mixture was revortexed and incubated at 55°C for 30 min, and the OD 530 nm was measured.

[5] = tested on: alginate production in MRPA0108; test: Alginate determination, H2SO4-carbazole method; assay type: cell-based, Pseudomonas aeruginosa; settings: OD 530 nm
Method: as §1

[6] = tested on: MRPA0108 strain; settings: previous study, ref Han et al., 2020; cited from earlier work
Excerpt: Supplement Table_1.docx, table 1: Table S1 Biological characteristics and antibacterial activities of the Trp-containing antimicrobial peptides (32) | column: MIC(μM)

[7] = cited from earlier work
Excerpt: Supplement Table_1.docx, table 1: Table S1 Biological characteristics and antibacterial activities of the Trp-containing antimicrobial peptides (32) | column: Hemolysis (μM)

[8] = tested on: MRPA0108 strain; test: MIC of antibiotics alone and in combination with 1/4 × MIC peptide; assay type: cell-based, Pseudomonas aeruginosa; settings: for fold reduction of MIC of the antibiotic: antibiotic in combination with Trp-containing peptides at 1/4 × MIC, range over the peptides
Method: FIGURE 6 Antibacterial activity of antibiotics in combination with the Trp-containing peptides. Bacterial cultures were treated with a series of concentration of antibiotics ceftazidime (A), piperacillin (B), and levofloxacin (C) in the absence (control) and presence of a 1/4 × MIC peptide concentration at 37C overnight. The OD600 was recorded using a microtiter plate reader. The MIC was defined as the lowest antibiotics concentration that inhibited 95% of the bacterial growth. Phenylalanyl arginyl β-naphthylamide (PAβN), a broad-spectrum inhibitor for efflux pump, was used as a positive control. Each data point represents an average of six independent experiments. *P < 0.05 and **P < 0.01 indicate statistically significant differences between antibiotics alone and antibiotics in combination with peptide.

[9] = tested on: β-lactamase activity in MRPA0108 cells; test: β-Lactamase activity assay (nitrocefin kit) in treated cells; assay type: cell-based, Pseudomonas aeruginosa; settings: MRPA0108 cells treated with antibiotic alone, compared to control
Method: β-lactamase activity was measured by using a β-lactamase assay kit (YIASEN Biotech Co., Ltd., Shanghai, China) according to the manufacturer’s instructions. Briefly, mid-log growth-phase bacteria were diluted to 1 × 10^8 CFU/ml and treated with I1W or L12W at concentrations ranging from 3.13 to 50 μM for 12 h at 37°C. After induction, the cultures were harvested by centrifugation at 5,000 rpm at 4°C, washed three times with PBS buffer (pH 7.2), and then resuspended in the same buffer. The cells were sonicated on ice for 15 min, and the cell lysates containing β-lactamase were collected by centrifugation at 12,000 rpm for 30 min at 4°C. Fifty microliters of the prepared β-lactamase-containing lysates was mixed with 50 μl of assay buffer containing nitrocefin and reacted at room temperature in a dark environment for 20 min. Nitrocefin hydrolysis was measured spectrophotometrically at 490 nm. Concurrently, the total protein content was determined with a Bradford assay using the same supernatant. One milliunit of β-lactamase is defined as 1 nanomole of nitrocefin hydrolyzed per minute per microgram of protein.

[10] = lowest concentration inhibiting 95% of growth, overnight 37°C, six experiments

CC[C@H](C)[C@H](N)C(=O)N[C@@H](CCCCN)C(=O)N[C@@H](CCCCN)C(=O)N[C@@H](Cc1c[nH]c2ccccc12)C(=O)N[C@@H](CC(C)C)C(=O)N[C@@H](CO)C(=O)N[C@@H](CCCCN)C(=O)N[C@H](C(=O)N[C@@H](CCCCN)C(=O)N[C@@H](CCCCN)C(=O)N[C@@H](CC(C)C)C(=O)N[C@@H](CC(C)C)C(=O)N[C@@H](CCCCN)C(N)=O)[C@@H](C)CC [I4W] (H-IKKWLSKIKKLLK-NH2; N-terminus and C-terminus assumed)
decrease of LasB elastase activity [1]: 22.3%
inhibition of rhamnolipid production [2]: 43.9%
average biofilm thickness ([3]; after treatment with low concentrations of peptide (1 × MIC or 2 × MIC), 37°C, control biofilm 6 μm): 1.5–2.5 μm
percentage of dead/live cells in biofilm ([3]; peptide at 1 × MIC): 31.2%
percentage of dead/live cells in biofilm ([3]; peptide at 2 × MIC): 41.7%
reduction of exopolysaccharide production ([4]; peptide at 1/4 × MIC, overnight 37°C): 25.0%
reduction of exopolysaccharide production ([4]; peptide at 1 × MIC): 65.2%
reduction of exopolysaccharide production ([4]; peptide concentration increased onefold from 1/4 × MIC): 42.4%
inhibition of alginate production ([5]; peptide at 1/4 × MIC): 47%
inhibition of alginate production ([5]; peptide at 1 × MIC): 68%
MIC [6]: 6.25 µM (≈ 10.2 µg/mL)
Hemolysis [7]: > 500 µM

CC(C)(O/N=C(\C(=O)N[C@@H]1C(=O)N2C(C(=O)[O-])=C(C[n+]3ccccc3)CS[C@H]12)c1csc(N)n1)C(=O)O [ceftazidime]
fold reduction of MIC of the antibiotic [8]: 8–32 fold
MIC of antibiotic alone [8, 10]: 30 µM
MIC of antibiotic in combination with 1/4 × MIC L12W [8, 10]: 0.94 µM
increase of β-lactamase activity [9]: fourfold

C[C@H]1COc2c(N3CCN(C)CC3)c(F)cc3c(=O)c(C(=O)O)cn1c23 [levofloxacin]
fold reduction of MIC of the antibiotic [8]: 0–4 fold

CCN1CCN(C(=O)N[C@@H](C(=O)N[C@@H]2C(=O)N3[C@@H]2SC(C)(C)[C@@H]3C(=O)O)c2ccccc2)C(=O)C1=O [piperacillin, reference compound]
fold reduction of MIC of the antibiotic [8]: 2–11 fold
increase of β-lactamase activity [9]: 1.8 fold
